Data as given in patent US20250011778A1, “APP iRNA Compositions and Methods of Use Thereof for Treating or Preventing Diseases Characterized by Enlarged Endosomes” (ALNYLAM PHARMACEUTICALS, INC., priority 2021, published 2025).
Entries after “also recorded” stand apart in the source; their conditions may differ.

Legend:
Format in all cases: in vivo
[1] = tested on: glutamate (Glu) and N-acetylaspartate (NAA); experiment: CVN mouse study, metabolites by 1H-MRS; details: 1H-MRS at 12 months of age (6 months post-dose)
Source text: (§1) Male and female CVN mice were bred at CRL Germany and genotyped, housed, dosed and analyzed (IHC, ^1H-MRS and open field test) at CRL Finland, as previously reported, under regular temperature, humidity and light/dark cycle conditions (Wilcock et al. J. Neurosci. 28: 1537-1545; Colton et al. J. Neuropathol. Exp. Neurol. 73: 752-769; Kohonen et al. Nat. Commun. 8: 15932). Homozygous Tg-hAPP^SwDI/mNos2^−/− (CVN) mice were produced by crossing mice expressing the vasculotropic Swedish K670N/M671L, Dutch E693Q and Iowa D694N human APP mutations under control of the Thy-1 promoter (Davis et al. J. Biol. Chem. 279: 20296-20306) with mNos2^−/− (B6 129PNos2 tau1Lau/J) mice (Laubach et al. Am. J. Physiol. 275: H2211-H2218). The study was divided into two phases. In the first phase, 15 CVN mice were dosed by ICV at 3 months of age, with terminal tissue sampling at 6 months of age and 9 months of age. In the second phase, 40 CVN mice and 20 WT mice were divided into three experimental groups, with terminal tissue sampling at 9 months of age and 12 months of age. […] Mice were placed in the center of the chamber, and their behaviors were recorded for 30 minutes. The following parameters were recorded and analyzed: distance traveled, number of vertical rearings and average velocity. […]

[2] = tested on: sAPPα protein; experiment: CVN mouse study, sAPPα protein after ICV dose; details: single 60 μg ICV, CSF
Source text: as §1

[3] = tested on: IBA1; experiment: CVN mouse study, inflammation (IBA1 IHC and Iba1 qPCR)
Source text: as §1

[4] = tested on: AB40 deposits; experiment: CVN mouse study, Aβ40 (AB40) deposits by IHC; details: 6 months after dose, dosed pre-symptomatically, not significant (n=2-4)
Source text: as §1

[5] = tested on: APP mRNA; experiment: CVN mouse study, APP mRNA knockdown after ICV dose
Source text: Male and female CVN mice were bred at CRL Germany and genotyped, housed, dosed and analyzed (IHC, ^1H-MRS and open field test) at CRL Finland, as previously reported, under regular temperature, humidity and light/dark cycle conditions (Wilcock et al. J. Neurosci. 28: 1537-1545; Colton et al. J. Neuropathol. Exp. Neurol. 73: 752-769; Kohonen et al. Nat. Commun. 8: 15932). Homozygous Tg-hAPP^SwDI/mNos2^−/− (CVN) mice were produced by crossing mice expressing the vasculotropic Swedish K670N/M671L, Dutch E693Q and Iowa D694N human APP mutations under control of the Thy-1 promoter (Davis et al. J. Biol. Chem. 279: 20296-20306) with mNos2^−/− (B6 129PNos2 tau1Lau/J) mice (Laubach et al. Am. J. Physiol. 275: H2211-H2218). The study was divided into two phases. In the first phase, 15 CVN mice were dosed by ICV at 3 months of age, with terminal tissue sampling at 6 months of age and 9 months of age. In the second phase, 40 CVN mice and 20 WT mice were divided into three experimental groups, with terminal tissue sampling at 9 months of age and 12 months of age. Metabolic analyses using ^1H-MRS were at 12 months of age, respectively, as previously described (Colton et al. J. Neuropathol. Exp. Neurol. 73: 752-769). Open field test measurements were performed at approximately 9 months of age. Activity chambers (Med Associates, 27×27×20.3 cm) were equipped with infrared beams. Mice were placed in the center of the chamber, and their behaviors were recorded for 30 minutes. The following parameters were recorded and analyzed: distance traveled, number of vertical rearings and average velocity. IHC was performed as described (Wilcock et al. J. Neurosci. 28: 1537-1545; Kan et al. J Neurosci. 35: 5969-5982) using anti-amyloid-beta antibody WO2 (Sigma-Aldrich, MABN10, lot 3557956, 1:500) and anti-IBA1 antibody (Wako Pure Chemicals, 01-1941, lot LEP3218, 1:200). All data are presented as mean±standard deviation or standard error of the mean, and differences were statistically significant at the P<0.05 level. Statistical analyses were performed using the PRISM statistical program (GraphPad Software).
ICV administration was performed using stereotaxically guided Hamilton syringe and infusion system (Harvard Apparatus). A single 5-μl unilateral injection was performed in the right lateral ventricle at the following coordinates: AP=−0.5 mm (posterior from bregma), ML=+1.0 mm and DV=−1.75 mm, using standard aseptic surgical procedures. After midline skin incision on the scalp, a burr hole was generated at selected coordinates using stereotaxic coordinates and a dental drill. Thereafter, a small puncture in the dura was made at the epicenter of the burr hole, and the needle was lowered to specified depth to reach the lateral ventricle. A Hamilton syringe with a 28-gauge blunt needle was filled with a volume slightly greater than 5 μl. Administration volume of the test articles was at 5 μl and infusion rate at 1 μl min^−1 (over 5 minutes). After the infusion, the needle was left in place for a stabilization period of 5 minutes before withdrawal from the ventricle. Withdrawal was performed slowly and paused for 30 seconds when the needle tip was at the cortical area. […]

[6] = tested on: CVN mice; experiment: CVN mouse study, open field test; details: vs WT
Source text: as §1

AD-454972: APP-targeting C16-siRNA; sense usasuga(Ahd)GfuUfCfAfucaucaaasasa, antisense VPusUfsuuug(Agn)ugaugaAfcUfucauasusc; SEQ 1435/1440 (sense UAUGAAGUUCAUCAUCAAAAA; antisense UUUUUGAUGAUGAACUUCAUAUC; C16 conjugate, chemical modifications, chemistry not fully specified)
N-acetylaspartate (NAA) levels [1]: little effect | glutamate (Glu) levels ([1]; vs WT): normalization; also recorded: normalized | reduction of sAPPα protein [2]: 50% | reduction of Iba1 mRNA expression ([3]; after 6 months): 20-30% | IBA1 IHC intensity ([3]; cortex and hippocampus, rate of increase over time): significantly slower rate of increase | reduction of AB40 deposits [4]: approximately 50% | reduction of APP mRNA in the cortex ([5]; after 3 months): approximately 25% | reduction of APP mRNA ([5]; single 60 μg ICV, ventral cortex (VC)): 50% | reduction of APP mRNA ([5]; single 120 μg ICV, 30 days post-dose, VC): ~75% | reduction of APP mRNA ([5]; single 120 μg ICV, 60 days post-dose, VC): > 50% | APP mRNA level ([5]; single 120 μg ICV, 90 days, VC): normalizing | rearing frequency [6]: normalization; also recorded: normalized | total distance traveled [6]: normalization; also recorded: normalized
